Paper PMC4145316, “Cytotoxic and Apoptosis-Inducing Activity of Triterpene Glycosides from Holothuria scabra and Cucumaria frondosa against HepG2 Cells” (Marine Drugs, 2014)

Tests used:
Top2a = system: Top2a; set-up: method as in PMID 19773249; conditions: interference in DNA binding, impairment of Top2-mediated DNA cleavage and relegation; cited from earlier work
HepG2 cells = test: Apoptosis morphology, acridine orange and Hoechst 33342 staining; format: cell-based, human; conditions: 2.5 and 2.75 μg/mL for 8 h; AO and Hoechst 33342 staining
Excerpt: The induction of apoptosis in cancer cells has emerged as an exciting possibility for the development of selective cancer therapies. Apoptosis is characterized by distinct morphological features such as cell shrinkage, loss of contact with neighboring cells, formation of cytoplastic vacuoles, chromatin condensation, nuclear-membrane blebbing, oligonucleosomal DNA fragmentation, and finally breakdown of the cell into smaller units (apoptotic bodies). To further characterize the anticancer activity of 1, disorganization of the nucleus with chromatin changes in HepG2 cells treated with 1 at the concentration of 2.5 and 2.75 μg/mL for 8 h was characterized using acridine orange (OA) and Hoechst 33342 staining under fluorescence microscope.
HepG2 cells were seeded at 1 × 10^5 cells/mL into 24-well plates and then incubated at 37 °C in a humidified atmosphere with 5% CO2. After 24 h, the cells were treated with 1 at the final concentrations of 0, 2.5 and 2.75 μg/mL for 8 h. After washed twice with PBS, cells were stained with 100 μL acridine orange (AO) solution (10 μg/mL) or Hoechst 33342 solution (5 μg/mL) for 30 min, and then visualized by fluorescence microscope (Olympus, Tokyo, Japan) with 488 nm stimulation and 500–520 nm emission or 350 nm stimulation and 460 nm emission, respectively.

[1] = system: Bcl-2 and Bax mRNA in HepG2 cells; test: RT-PCR, Bcl-2/Bax mRNA expression ratio; format: cell-based, human; conditions: time- and concentration-dependent
Excerpt: The Bcl-2 family members can alter the permeability of mitochondrial membrane, and release cytochrome c or activate caspase cascade. There are two classes of regulatory proteins in the Bcl-2 family that have opposite effects on apoptosis: The anti-apoptotic members (Bcl-2 and Bcl-XL) protect cells against some forms of apoptosis, whereas the pro-apoptotic members (Bax and Bcl-xS) promote programmed cell death. As decrease of the ratio between anti-apoptotic gene Bcl-2 and pro-apoptotic gene Bax mRNA expression is widely considered as a hallmark of apoptosis, the expression level of Bcl-2 and Bax mRNA in HepG2 cells were first detected.
Figure 5 Effect of 1 on the ratio of expression level between Bcl-2 and Bax mRNA in HepG2 cells. HepG2 cells were incubated with 1 at the various concentrations for the different time. The mRNA expression levels of β-actin, Bcl-2, and Bax were detected by RT-PCR using specific primers. The values are presented as means ± SD (n = 3). […]
Total RNA was extracted with TRIzol reagent (Invitrogen, Grand Island, NY, USA) according to the manufacturer’s instructions, and reverse transcription was performed as previously. […] Semi-quantitative RT-PCR was performed using β-actin as an internal control to normalize gene expression for the PCR templates. […] The size of the amplified fragments was determined by comparison with a standard DNA marker.

COC1C(O)C(CO)OC(OC2C(O)C(CO)OC(OC3C(C)OC(OC4C(OC5CCC6(C)C7=CC(O)C89C(=O)OC(C)(CCCC(C)C)C8(O)CCC9(C)C7CCC6C5(C)C)OCC(OS(=O)(=O)O)C4O)C(O)C3O)C2O)C1O.[Na+] (stereo not drawn) [Echinoside A (1), Echinoside A]
Top2 inhibition (Top2a): non-intercalative Top2 inhibitor | apoptosis in HepG2 cells (morphology) (HepG2 cells): could induce apoptosis | ratio of Bcl-2/Bax mRNA expression [1]: significantly decreased
